Assay results reported in US11957687B2 (REGENERON PHARMACEUTICALS, INC., priority 2019, dated 2024).
pIC50: −log10 of the molar value. Each block holds one compound with its values, some of them ahead of it.

Legend:
Assay type in all cases: biochemical
HSD17B13 = HSD17B13 (Homo sapiens (Human), UniProt Q7Z5P4); assay: HSD17B13 enzymatic inhibition assay (150 nM or 50 nM HSD17B13); settings: 50 nM HSD17B13; read-out: Inhibition of 50 nM of HSD17B13 IC50
HSD17B1 = HSD17B1 (Homo sapiens (Human), UniProt P14061); assay: HSD17B1 enzymatic blocking assay; settings: 25 μM Estradiol, 500 μM NAD; read-out: Inhibition of HSD17B1 IC50
Chain of HSD17B1 (P14061 other isoform, or with tags, fused parts or gaps): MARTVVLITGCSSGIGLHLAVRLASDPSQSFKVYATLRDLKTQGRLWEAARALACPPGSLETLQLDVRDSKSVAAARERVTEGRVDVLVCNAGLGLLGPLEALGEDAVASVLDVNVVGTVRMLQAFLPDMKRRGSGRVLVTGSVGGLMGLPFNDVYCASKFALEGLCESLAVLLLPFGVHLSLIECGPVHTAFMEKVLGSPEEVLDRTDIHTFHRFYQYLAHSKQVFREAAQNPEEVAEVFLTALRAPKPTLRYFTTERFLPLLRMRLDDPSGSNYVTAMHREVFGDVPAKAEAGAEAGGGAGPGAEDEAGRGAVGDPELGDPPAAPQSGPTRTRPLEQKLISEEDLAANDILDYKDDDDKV
Experimental: To screen compounds of the disclosure for their ability to block HSD17B1 function, an enzymatic blocking assay was performed. For the assay, HSD17B1 activity was measured by detecting NADH formation from oxidation of Estradiol using a NADH Glo luminescence assay (Promega, #Cat. No. G9062). […] Compounds were incubated with the enzyme for 30 minutes at room temperature. […] DMSO at a concentration of 0.5% was used as a negative control and a ‘no substrate’ control was used a positive control in the assay. Detection reagent was then added as per manufacturer's instructions, and the plate was subsequently incubated in the dark for 1 hour at room temperature, NADH generated was detected in the luminescence mode on the Envision Perkin Elmer plate reader. The IC50 values were determined using Dotmatics analysis software.

HSD17B2 = HSD17B2 (Homo sapiens (Human), UniProt P37059); assay: HSD17B2 enzymatic blocking assay; settings: 1.8 μM Estradiol, 650 μM NAD; read-out: Inhibition of HSD17B2 IC50
Chain of HSD17B2 (P37059 other isoform, or with tags, fused parts or gaps): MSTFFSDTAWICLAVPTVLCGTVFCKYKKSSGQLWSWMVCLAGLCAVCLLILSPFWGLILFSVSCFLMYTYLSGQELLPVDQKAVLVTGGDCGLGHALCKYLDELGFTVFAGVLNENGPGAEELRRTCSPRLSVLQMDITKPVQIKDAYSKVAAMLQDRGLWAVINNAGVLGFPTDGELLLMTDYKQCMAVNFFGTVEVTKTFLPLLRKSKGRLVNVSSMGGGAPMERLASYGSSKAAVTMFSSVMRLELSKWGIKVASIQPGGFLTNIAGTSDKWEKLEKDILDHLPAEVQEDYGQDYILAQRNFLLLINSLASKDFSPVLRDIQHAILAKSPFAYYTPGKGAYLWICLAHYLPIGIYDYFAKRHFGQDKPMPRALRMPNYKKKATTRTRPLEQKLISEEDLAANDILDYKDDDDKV
Experimental: To screen compounds of the disclosure for their ability to block HSD17B2 function, an enzymatic blocking assay was performed. For the assay, HSD17B2 activity was measured by detecting NADH formation from oxidation of Estradiol using a NADH Glo luminescence assay (Promega, #Cat. No. G9062). Compounds of the disclosure were evaluated in a dose titration assay where the compounds were titrated at 10-point dose curve using an Echo-555 liquid handling dispenser. HSD17B2 (SEQ ID NO: 3, expressed in mammalian cells) was added at a final concentration of 2 ng/μL in a buffer containing 50 mM Tris-HCl, pH 7.5, Pluronic F-127 0.05%, Tween20 0.01%, BSA 0.01% into a low volume white 384-well assay plate. Compounds were incubated with the enzyme for 15 min at 20° C. The assay reaction was then initiated by addition of 1.8 μM Estradiol substrate (Sigma, catalog #E2758-250MG, CAS: 50-28-2) and 650 μM NAD co-factor, and the reaction mixture was incubated for 45 min at 20° C. DMSO at a concentration of 0.5% was used as a negative control and a ‘no substrate’ control was used a positive control in the assay. Detection reagent was then added as per manufacturer's instructions, and the plate was subsequently incubated in the dark for 1 hour at room temperature, NADH generated was detected in the luminescence mode on the Envision Perkin Elmer plate reader. The IC50 values were determined using Dotmatics analysis software.

Chain of HSD17B13 (Q7Z5P4 other isoform, or with tags, fused parts or gaps): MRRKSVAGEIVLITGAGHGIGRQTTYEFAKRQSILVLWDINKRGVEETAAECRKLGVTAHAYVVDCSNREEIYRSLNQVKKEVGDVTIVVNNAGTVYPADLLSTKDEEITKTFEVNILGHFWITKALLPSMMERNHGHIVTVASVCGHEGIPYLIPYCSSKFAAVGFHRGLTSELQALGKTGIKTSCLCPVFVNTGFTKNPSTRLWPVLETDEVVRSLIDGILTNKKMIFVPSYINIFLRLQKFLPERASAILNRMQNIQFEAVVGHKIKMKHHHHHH

Structure (SMILES): COc1ccc2c(c1)Sc1cc(OC)ccc1C2NC(=O)c1ccc(C(F)F)[nH]c1=O [Compound 274, 6-(difluoromethyl)-N-(3,6-dimethoxy-9H-thioxanthen-9-yl)-2-oxo-1,2-dihydropyridine-3-carboxamide]
- pIC50 (HSD17B13): 6.57
- pIC50 (HSD17B1): 5.08
- pIC50 (HSD17B2): 5.04

Structure (SMILES): Cc1ccc2c(c1)Sc1cc(C)ccc1C2NC(=O)c1ccc(C(F)F)[nH]c1=O [Compound 282, 6-(difluoromethyl)-N-(3,6-dimethyl-9H-thioxanthen-9-yl)-2-oxo-1,2-dihydropyridine-3-carboxamide]
- pIC50 (HSD17B13): 6.85
- pIC50 (HSD17B1): < 4.52
- pIC50 (HSD17B2): < 4.00

Structure (SMILES): CCC1CCC(NC(=O)c2ccc(C(F)(F)F)[nH]c2=O)c2ccc(C)cc21 (stereo not drawn) [Compound 300, N-(4-ethyl-6-methyl-1,2,3,4-tetrahydronaphthalen-1-yl)-2-oxo-6-(trifluoromethyl)-1,2-dihydropyridine-3-carboxamide]
- pIC50 (HSD17B13): 6.85
- pIC50 (HSD17B1): 4.74
- pIC50 (HSD17B2): 4.99

Structure (SMILES): Cc1ccc2c(c1)C(C)CCC2NC(=O)c1ccc(C(F)(F)F)[nH]c1=O (stereo not drawn) [Compound 302, N-(4,6-dimethyl-1,2,3,4-tetrahydronaphthalen-1-yl)-2-oxo-6-(trifluoromethyl)-1,2-dihydropyridine-3-carboxamide]
- pIC50 (HSD17B13): 6.80
- pIC50 (HSD17B1): < 4.52
- pIC50 (HSD17B2): 4.64

Structure (SMILES): CCCc1sc2cc(C)ccc2c1NC(=O)c1ccc(C(F)(F)F)[nH]c1=O [Compound 308, N-(6-methyl-2-propylbenzo[b]thiophen-3-yl)-2-oxo-6-(trifluoromethyl)-1,2-dihydropyridine-3-carboxamide]
- pIC50 (HSD17B13): 7.15
- pIC50 (HSD17B1): 4.81
- pIC50 (HSD17B2): 4.77

Structure (SMILES): CCc1sc2cc(C)ccc2c1NC(=O)c1ccc(C(F)(F)F)[nH]c1=O [Compound 309, N-(2-ethyl-6-methylbenzo[b]thiophen-3-yl)-2-oxo-6-(trifluoromethyl)-1,2-dihydropyridine-3-carboxamide]
- pIC50 (HSD17B13): 7.10
- pIC50 (HSD17B1): 4.84
- pIC50 (HSD17B2): 4.65

Structure (SMILES): COc1ccc2c(c1)Sc1cccnc1C2NC(=O)c1ccc(C(F)(F)F)[nH]c1=O (stereo not drawn) [Compound 321, N-(7-methoxy-10H-thiochromeno[3,2-b]pyridin-10-yl)-2-oxo-6-(trifluoromethyl)-1,2-dihydropyridine-3-carboxamide]
- pIC50 (HSD17B13): 6.66
- pIC50 (HSD17B1): < 4.52
- pIC50 (HSD17B2): 5.08

Structure (SMILES): COc1ccc2c(c1)Sc1cnccc1C2NC(=O)c1ccc(C(F)(F)F)[nH]c1=O (stereo not drawn) [Compound 323, N-(8-methoxy-5H-thiochromeno[2,3-c]pyridin-5-yl)-2-oxo-6-(trifluoromethyl)-1,2-dihydropyridine-3-carboxamide]
- pIC50 (HSD17B13): 6.66
- pIC50 (HSD17B1): < 4.52
- pIC50 (HSD17B2): 4.45

Structure (SMILES): Cc1cnc2c(c1)Oc1ccccc1C2NC(=O)c1ccc(C(F)(F)F)[nH]c1=O (stereo not drawn) [Compound 324, N-(3-methyl-10H-chromeno[3,2-b]pyridin-10-yl)-2-oxo-6-(trifluoromethyl)-1,2-dihydropyridine-3-carboxamide]
- pIC50 (HSD17B13): 7.40
- pIC50 (HSD17B1): < 4.52
- pIC50 (HSD17B2): 4.25

Structure (SMILES): Cc1ccc2c(c1)Oc1cnccc1C2NC(=O)c1ccc(C(F)(F)F)[nH]c1=O (stereo not drawn) [Compound 328, N-(8-methyl-5H-chromeno[2,3-c]pyridin-5-yl)-2-oxo-6-(trifluoromethyl)-1,2-dihydropyridine-3-carboxamide]
- pIC50 (HSD17B13): 6.96
- pIC50 (HSD17B1): 5.38
- pIC50 (HSD17B2): < 4.00

Structure (SMILES): Cc1ccc2c(c1)OC1CCCCC1C2NC(=O)c1ccc(C(F)(F)F)[nH]c1=O (stereo not drawn) [Compound 409, N-(6-methyl-2,3,4,4a,9,9a-hexahydro-1H-xanthen-9-yl)-2-oxo-6-(trifluoromethyl)-1,2-dihydropyridine-3-carboxamide]
- pIC50 (HSD17B13): 7.40
- pIC50 (HSD17B1): < 4.52
- pIC50 (HSD17B2): 4.53

Second part, the compound after the results:

- pIC50 (HSD17B13): 7.10
- pIC50 (HSD17B1): < 4.52
- pIC50 (HSD17B2): 4.66
Structure (SMILES): Cc1ccc2c(c1)Oc1ccncc1C2NC(=O)c1ccc(C(F)(F)F)[nH]c1=O (stereo not drawn) [Compound 330, N-(7-methyl-10H-chromeno[3,2-c]pyridin-10-yl)-2-oxo-6-(trifluoromethyl)-1,2-dihydropyridine-3-carboxamide]

- pIC50 (HSD17B13): 6.29
- pIC50 (HSD17B1): < 4.52
- pIC50 (HSD17B2): 4.53
Structure (SMILES): CCC[C@@H]1Oc2ccc(C)cc2[C@@H]1NC(=O)c1ccc(C(F)(F)F)[nH]c1=O [Compound 354, N-((2S,3S)-5-methyl-2-propyl-2,3-dihydrobenzofuran-3-yl)-2-oxo-6-(trifluoromethyl)-1,2-dihydropyridine-3-carboxamide]

- pIC50 (HSD17B13): 6.28
- pIC50 (HSD17B1): < 4.52
- pIC50 (HSD17B2): 4.42
Structure (SMILES): CCC1Oc2ccc(C)cc2C1NC(=O)c1ccc(C(F)(F)F)[nH]c1=O (stereo not drawn) [Compound 355, N-(2-ethyl-5-methyl-2,3-dihydrobenzofuran-3-yl)-2-oxo-6-(trifluoromethyl)-1,2-dihydropyridine-3-carboxamide]

- pIC50 (HSD17B13): 6.80
- pIC50 (HSD17B1): < 4.52
- pIC50 (HSD17B2): < 4.00
Structure (SMILES): Cc1ccc2c(c1)OC(C)CC2NC(=O)c1ccc(C(F)(F)F)[nH]c1=O (stereo not drawn) [Compound 405, N-(2,7-dimethylchroman-4-yl)-2-oxo-6-(trifluoromethyl)-1,2-dihydropyridine-3-carboxamide]

- pIC50 (HSD17B13): 6.64
- pIC50 (HSD17B1): 4.54
- pIC50 (HSD17B2): 4.27
Structure (SMILES): CCCC1CC(NC(=O)c2ccc(C(F)(F)F)[nH]c2=O)c2ccc(C)cc2O1 (stereo not drawn) [Compound 406, N-(7-methyl-2-propylchroman-4-yl)-2-oxo-6-(trifluoromethyl)-1,2-dihydropyridine-3-carboxamide]

- pIC50 (HSD17B13): 6.80
- pIC50 (HSD17B1): 4.90
- pIC50 (HSD17B2): 4.16
Structure (SMILES): CCC1CC(NC(=O)c2ccc(C(F)(F)F)[nH]c2=O)c2ccc(C)cc2O1 (stereo not drawn) [Compound 407, N-(2-ethyl-7-methylchroman-4-yl)-2-oxo-6-(trifluoromethyl)-1,2-dihydropyridine-3-carboxamide]

- pIC50 (HSD17B13): 6.60
- pIC50 (HSD17B1): 5.07
- pIC50 (HSD17B2): 4.76
Structure (SMILES): O=C(NC1c2ccccc2-c2ccc(C(F)(F)F)cc21)c1ccc(C(F)(F)F)[nH]c1=O (stereo not drawn) [Compound 414, 2-oxo-6-(trifluoromethyl)-N-(2-(trifluoromethyl)-9H-fluoren-9-yl)-1,2-dihydropyridine-3-carboxamide]

- pIC50 (HSD17B13): 7.15
- pIC50 (HSD17B1): 4.70
- pIC50 (HSD17B2): 4.83
Structure (SMILES): COc1ccc2c(c1)C(NC(=O)c1ccc(C(F)(F)F)[nH]c1=O)c1ccccc1-2 (stereo not drawn) [Compound 416, N-(2-methoxy-9H-fluoren-9-yl)-2-oxo-6-(trifluoromethyl)-1,2-dihydropyridine-3-carboxamide]

- pIC50 (HSD17B13): 7.00
- pIC50 (HSD17B1): 4.87
- pIC50 (HSD17B2): 4.32
Structure (SMILES): Cc1ccc2c(c1)C(NC(=O)c1ccc(C(F)(F)F)[nH]c1=O)c1ccccc1-2 (stereo not drawn) [Compound 417, N-(2-methyl-9H-fluoren-9-yl)-2-oxo-6-(trifluoromethyl)-1,2-dihydropyridine-3-carboxamide]

- pIC50 (HSD17B13): 6.20
- pIC50 (HSD17B1): < 4.52
- pIC50 (HSD17B2): < 4.00
Structure (SMILES): CNc1cccc(C(NC(=O)c2ccc(C(F)(F)F)[nH]c2=O)c2ccc(C)cc2)c1 (stereo not drawn) [Compound 419, N-((3-(methylamino)phenyl)(p-tolyl)methyl)-2-oxo-6-(trifluoromethyl)-1,2-dihydropyridine-3-carboxamide]

- pIC50 (HSD17B13): 6.44
- pIC50 (HSD17B1): 4.60
- pIC50 (HSD17B2): 4.95
Structure (SMILES): Cc1ccc(C(NC(=O)c2ccc(C(F)(F)F)[nH]c2=O)C2CCCCC2)cc1 (stereo not drawn) [Compound 421, N-(cyclohexyl(p-tolyl)methyl)-2-oxo-6-(trifluoromethyl)-1,2-dihydropyridine-3-carboxamide]

- pIC50 (HSD17B13): 6.80
- pIC50 (HSD17B1): 4.97
- pIC50 (HSD17B2): 4.76
Structure (SMILES): Cc1ccc(C(CC2CCCCC2)NC(=O)c2ccc(C(F)(F)F)[nH]c2=O)cc1 (stereo not drawn) [Compound 422, N-(2-cyclohexyl-1-(p-tolyl)ethyl)-2-oxo-6-(trifluoromethyl)-1,2-dihydropyridine-3-carboxamide]

- pIC50 (HSD17B13): 6.96
- pIC50 (HSD17B1): 4.63
- pIC50 (HSD17B2): 4.23
Structure (SMILES): Cc1ccc2c(c1)Oc1cc(C)ccc1C2NC(=O)c1cc(N2CCN(C)CC2)c(C(F)(F)F)[nH]c1=O [Compound 435, N-(3,6-dimethyl-9H-xanthen-9-yl)-5-(4-methylpiperazin-1-yl)-2-oxo-6-(trifluoromethyl)-1,2-dihydropyridine-3-carboxamide]

- pIC50 (HSD17B13): 7.05
- pIC50 (HSD17B1): 5.21
- pIC50 (HSD17B2): 4.56
Structure (SMILES): Cc1ccc2c(c1)Oc1cc(C)ccc1C2NC(=O)c1cc(N2CCCCC2)c(C(F)(F)F)[nH]c1=O [Compound 436, N-(3,6-dimethyl-9H-xanthen-9-yl)-2-oxo-5-(piperidin-1-yl)-6-(trifluoromethyl)-1,2-dihydropyridine-3-carboxamide]
